# In patent US20200179426A1, “METHODS OF USE FOR OENOTHEIN A AND B FROM EPILOBIUM SPECIES” (EPILOBIUM, INC., priority 2017, published 2020):
# Tests used:
# [1] = system: hen's-egg chorioallantoic membrane (CAM); assay: hen's-egg chorioallantoic membrane (CAM) irritation model with 15% lactic acid as standard irritant; details: oenothein B extract at 1% (weight to volume) dilution; applied before the irritant (15% lactic acid), simulating prophylactic use
# Procedure: In the hen's-egg chorioallantoic membrane (CAM) model, in which the CAM is treated with 15% lactic acid as a standard irritant, the development of manifestations of membrane irritation were tracked and scored according to published methods for assessing irritancy. A sample of the oenothein B extract from Canadian Willow herb described in Example 1 was tested at a 1% (weight to volume) dilution for activity in the CAM model.
# [2] = xanthine oxidase/acetaldehyde spectrophotometric free radical scavenging assay; assay type: biochemical
# Procedure: The scavenging of free super oxide radicals is quantitated spectrometrically and expressed in terms of percentage of radicals scavenged. Assays were performed with 1% (w/v) and 0.1% (w/v) dilutions of the dried extract, which yielded up to 100% scavenging activity and up to 99% scavenging activity respectively.
substance,measurement,setting,value
oenothein B,decrease in irritation,[1],up to 70%
same,scavenging activity (percentage of superoxide radicals scavenged),[2]; 0.1% (w/v) dilution of the dried extract,up to 99%
same,scavenging activity (percentage of superoxide radicals scavenged),[2]; 1% (w/v) dilution of the dried extract,up to 100%
